The Ki is a measure of affinity in units of concentration, obtained from inhibition or displacement.

Experimental findings from publication PMC11682962, “The histamine analogue clobenpropit modulates IRF7 phosphorylation and interferon production by targeting CXCR4 in systemic lupus erythematosus models” (Frontiers in Immunology, 2024) are described below.

The test addresses T1, CXCR4 (Homo sapiens, UniProt P61073).
T1 construct: Nanoluc-CXCR4
Kind of test: NanoBRET competition binding against CXCL12-AF647 in transfected HEK293T cells; anti-IFN effect lost with CXCR4 siRNA. Type of test: cell-based. Background: BRET reads energy transfer from a luciferase to a nearby fluorophore.

T1 sequence (P61073 whole entry): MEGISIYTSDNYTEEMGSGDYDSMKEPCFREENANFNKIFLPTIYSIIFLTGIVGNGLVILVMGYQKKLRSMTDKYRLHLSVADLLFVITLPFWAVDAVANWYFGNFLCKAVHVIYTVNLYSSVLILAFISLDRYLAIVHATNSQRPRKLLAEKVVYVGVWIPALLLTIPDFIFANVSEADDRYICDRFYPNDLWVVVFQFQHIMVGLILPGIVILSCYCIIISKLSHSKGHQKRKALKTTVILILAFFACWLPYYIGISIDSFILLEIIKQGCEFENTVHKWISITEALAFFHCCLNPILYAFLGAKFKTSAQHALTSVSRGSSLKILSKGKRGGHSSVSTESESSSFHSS

`NC(=NCc1ccc(Cl)cc1)SCCCc1cnc[nH]1` [CB, clobenpropit] gave an inhibition constant (Ki) of 18.6 µM.
